According to US8580802B2, “Pyrrolo[2,3-D]pyrimidines as inhibitors of Janus kinases” (Vertex Pharmaceuticals Incorporated, priority 2005, dated 2013):

Legend:
JAK2 = JAK2 (Homo sapiens, UniProt O60674); experiment: JAK2 Inhibition Assay; type: biochemical; settings: JAK-2 enzyme, 15 μM poly(Glu)4Tyr, 12 μM ATP
Procedure, shortened: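 Radiometric kinase assay with 1 nM JAK2 in pH 7.4 HEPES buffer (10 mM MgCl2, 1 mM DTT, 0.01% BSA), final 15 μM poly(Glu)4Tyr and 12 μM [33P]-ATP. Run 20 min at 25 °C, stopped with TCA; 33P incorporation captured on glass-fibre filters and read by scintillation counting.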

JAK3 = molecular target: T1, JAK3 (Homo sapiens, UniProt P52333); experiment: JAK3 Inhibition Assay; type: biochemical; settings: 1 nM JAK3, 1 μM poly(Glu)4Tyr, 5 μM ATP, 25° C.; read-out: enzyme inhibition data (Ki) JAK3
T1 sequence (P52333 1-1124): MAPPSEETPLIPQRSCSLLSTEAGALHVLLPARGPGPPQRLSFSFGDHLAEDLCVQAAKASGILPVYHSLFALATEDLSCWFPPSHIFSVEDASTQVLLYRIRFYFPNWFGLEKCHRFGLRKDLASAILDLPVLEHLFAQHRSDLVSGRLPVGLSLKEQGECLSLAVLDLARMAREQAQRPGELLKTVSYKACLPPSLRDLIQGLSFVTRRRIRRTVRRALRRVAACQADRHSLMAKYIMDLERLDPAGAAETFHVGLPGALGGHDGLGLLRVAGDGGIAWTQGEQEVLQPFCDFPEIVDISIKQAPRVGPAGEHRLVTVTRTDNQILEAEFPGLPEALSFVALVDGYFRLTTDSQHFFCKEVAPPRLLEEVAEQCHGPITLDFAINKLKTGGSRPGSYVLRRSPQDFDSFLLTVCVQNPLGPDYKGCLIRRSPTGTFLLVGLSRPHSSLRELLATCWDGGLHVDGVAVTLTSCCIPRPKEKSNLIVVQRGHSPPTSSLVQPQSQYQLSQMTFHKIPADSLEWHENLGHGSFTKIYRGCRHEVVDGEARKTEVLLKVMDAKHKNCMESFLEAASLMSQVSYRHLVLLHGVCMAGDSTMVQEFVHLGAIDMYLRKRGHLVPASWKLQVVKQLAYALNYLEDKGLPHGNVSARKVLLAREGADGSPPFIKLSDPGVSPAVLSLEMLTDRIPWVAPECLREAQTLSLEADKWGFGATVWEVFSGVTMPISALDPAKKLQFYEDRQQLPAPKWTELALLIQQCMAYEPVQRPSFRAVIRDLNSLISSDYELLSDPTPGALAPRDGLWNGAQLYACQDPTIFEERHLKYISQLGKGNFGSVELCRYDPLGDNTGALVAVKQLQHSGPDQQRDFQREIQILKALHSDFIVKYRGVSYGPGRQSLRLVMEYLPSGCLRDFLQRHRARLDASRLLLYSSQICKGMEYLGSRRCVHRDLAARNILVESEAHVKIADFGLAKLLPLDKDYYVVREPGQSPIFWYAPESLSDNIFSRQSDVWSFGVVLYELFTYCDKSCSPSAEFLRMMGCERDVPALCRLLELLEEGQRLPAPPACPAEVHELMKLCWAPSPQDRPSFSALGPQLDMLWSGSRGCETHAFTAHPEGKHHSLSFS
Procedure, shortened: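 Radiometric ^33P incorporation into poly(Glu)4Tyr (1 μM) by 1 nM human JAK3 at 5 μM ATP, in HEPES pH 7.4 buffer with MgCl2, DTT and BSA. Reaction ran 20 min at 25° C, stopped with TCA, then filtered before scintillation counting.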

JAK2, sequence (O60674 whole entry): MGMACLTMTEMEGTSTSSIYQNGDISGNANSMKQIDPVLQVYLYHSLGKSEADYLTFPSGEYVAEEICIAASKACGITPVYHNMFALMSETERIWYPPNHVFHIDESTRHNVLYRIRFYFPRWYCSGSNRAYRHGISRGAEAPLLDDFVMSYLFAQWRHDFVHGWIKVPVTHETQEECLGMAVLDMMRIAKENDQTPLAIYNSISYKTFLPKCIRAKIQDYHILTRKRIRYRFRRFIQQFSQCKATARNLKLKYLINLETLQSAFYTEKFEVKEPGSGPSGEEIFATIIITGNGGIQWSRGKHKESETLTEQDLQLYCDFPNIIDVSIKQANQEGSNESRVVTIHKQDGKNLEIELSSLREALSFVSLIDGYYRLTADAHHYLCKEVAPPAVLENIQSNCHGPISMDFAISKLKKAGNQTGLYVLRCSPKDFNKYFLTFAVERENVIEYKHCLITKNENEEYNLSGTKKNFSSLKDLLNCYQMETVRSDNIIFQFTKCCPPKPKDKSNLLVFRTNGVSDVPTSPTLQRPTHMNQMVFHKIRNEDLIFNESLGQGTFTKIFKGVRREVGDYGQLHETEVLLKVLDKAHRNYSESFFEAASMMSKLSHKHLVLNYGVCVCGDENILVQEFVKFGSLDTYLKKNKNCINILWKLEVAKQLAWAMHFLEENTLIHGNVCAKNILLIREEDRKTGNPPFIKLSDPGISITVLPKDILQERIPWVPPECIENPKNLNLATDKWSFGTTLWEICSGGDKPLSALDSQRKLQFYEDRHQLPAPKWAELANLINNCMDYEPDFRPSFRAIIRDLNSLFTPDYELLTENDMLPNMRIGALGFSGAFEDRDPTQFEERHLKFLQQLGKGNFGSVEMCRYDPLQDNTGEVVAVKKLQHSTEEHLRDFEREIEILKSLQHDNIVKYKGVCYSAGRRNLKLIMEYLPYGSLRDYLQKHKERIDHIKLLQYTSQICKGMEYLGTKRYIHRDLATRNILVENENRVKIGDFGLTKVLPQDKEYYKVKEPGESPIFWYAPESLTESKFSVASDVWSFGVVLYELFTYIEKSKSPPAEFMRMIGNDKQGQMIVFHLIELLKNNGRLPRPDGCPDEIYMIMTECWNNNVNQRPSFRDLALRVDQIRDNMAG

| Ki (JAK2) [nM] | Ki (JAK3) [nM] | SMILES |
| --- | --- | --- |
| < 500 | < 500 | CC[C@@H](C(=O)NCC(F)(F)F)n1ccc2cnc(-c3c[nH]c4ncncc34)nc21 [Compound 112] |
| < 500 | < 500 | CC[C@@H](C(=O)NCC(F)(F)F)n1cnc2cnc(-c3c[nH]c4ncncc34)nc21 [Compound 113] |
